# Data as given in patent publication US8703829B2, “Therapeutic compounds” (University of Louisville Research Foundation, Inc., priority 2007, dated 2014).
# Legend:
# [1] = test system: DNA methyltransferase activity of HeLa nuclear extracts; test: Test E experiment 3: DNA methyltransferase activity of purified HeLa nuclear extracts incubated in vitro with compound (EpiQuik kit); type: biochemical; details: experiment 3: 20 μg HeLa nuclear extracts incubated in vitro with 500 nM; untreated 0.264
# Description: (§1) Test E The Methyltransferase Activity of the Compound of Example 1 was Evaluated as Follows.
# (§2) For experiments 1 and 2, A549 non-small cell lung cancer cells were incubated with the compound of Example 1 (1 μM final concentration) or vehicle (untreated) for 2 h and nuclear extracts were prepared by standard methods. The total DNA methyltransferase activity of the extracts was measured using EpiQuik™ DNA Methyltransferase Activity/Inhibition Assay Kit (Epigentek, Brooklyn, N.Y.), according to the manufacturer's directions. For experiment 3, the assay was carried out using purified HeLa nuclear extracts in the presence of the compound of Example 1 (500 nM final concentration) or vehicle (untreated).
# (§3) The assay involves incubation of nuclear extracts (as a source of DNA methyltransferase activity) with immobilized DNA substrate in the presence of Adomet (methyl donor). The DNA methyltransferase activity was measured by determining levels of 5-methylcytosine in the DNA substrate using a primary antibody to 5-methylcytosine and a secondary antibody for colorimetric detection at 450 nm.
# [2] = test system: A549 human non-small cell lung cancer xenografts; type: in vivo
# Description: FIG. 2. […] (A) Tumor growth appeared to be reduced in mice treated with the compound of Example 1, but the effect was not statistically significant (p≧0.13). […] Compare with the mean±SE in the control group.
# Test F In-vivo Effects of Compound of Example 1.
# The following study was designed to assess toxicity and activity in female nude mice bearing A549 human non-small cell lung cancer xenografts. Athymic nude mice were inoculated subcutaneously (s.c.) with A549 cells and treatment began after small tumors were visible. The compound of Example 1 was prepared at 100 mg/ml or 50 mg/ml in DMSO and diluted 1:10 with sterile PBS. Mice were treated by intraperitoneal (i.p.) injections of 100 μl of these solutions, equivalent to approximately 25 mg/kg or 50 mg/kg; the control group received identical injections of vehicle (10% DMSO in PBS). Mice received injections of the compound of Example 1 or vehicle five times per week (once per day, except on weekends) for up to 30 injections. […] Evaluating the long-term outcome was complicated by the fact that several animals in the compound of Example 1 treated groups developed tumor necrosis/ulceration and had to be euthanized before the end of the experiment, as required by IACUC protocol. This tumor necrosis is believed to be treatment-related as it occurred in 5/12 treated animals, but 0/6 of the control group. […] The overall response seemed to be equivalent or better in the low dose group compared with the high dose group, but that may be consistent with the mechanism of action, since a similar effect has been observed for decitabine in humans.
# [3] = test system: panel of 60 human tumor cell lines; test: Test D: screen against a panel of 60 human tumor cell lines; type: cell-based
# Description: Test D Anti-Cancer Activity
# The compound of Example 1 below was screened against a panel of 60 human tumor cell lines.
# [4] = test system: total DNA methyltransferase activity in A549 non-small cell lung cancer cells; test: Test E experiments 1 and 2: DNA methyltransferase activity of nuclear extracts from treated A549 cells (EpiQuik kit); type: cell-based, human
# Description: as §1, §2, §3
structure (smiles),measurement,setting,value
"CCCCCC(O)C#CC(F)(F)Br (stereo not drawn) [Example 1, 1-bromo-1,1-difluoro-non-2-yn-4-ol]",Relative DNA Methyltransferase Activity,[1],0.092
same,"tumor necrosis/ulceration, treated animals affected","[2]; approx. 25 or 50 mg/kg i.p., 0/6 in the control group",5/12
same,tumor growth compared to control-treated mice,"[2]; approx. 25 or 50 mg/kg i.p., difference not statistically significant (p≧0.13)",grew slower
same,size of ulcerated tumors versus control group at the same time point,[2]; treated mice euthanized early due to tumor necrosis,substantially smaller
same,GI50,"[3]; Homo sapiens, all seven breast cancer cell lines, including a doxorubicin-resistant line",0.01 to 0.066 µM
same,activity by tumor type,"[3]; breast, prostate, colon and brain (CNS) tumor cells",highly active
same,activity by tumor type,"[3]; other tumor types, e.g. melanomas",less potent
same,Relative DNA Methyltransferase Activity,"[4]; experiment 1: nuclear extracts from lung cancer cells treated 1 μM for 2 h, untreated 0.114",0.073
same,Relative DNA Methyltransferase Activity,"[4]; experiment 2 (repeat): nuclear extracts from lung cancer cells treated 1 μM for 2 h, untreated 0.122",0.075
